Values quoted from earlier work in patent US9592004B2, “Methods and systems for managing epilepsy and other neurological disorders” (CYBERONICS, INC., priority 2005, dated 2017).
Like-named read-outs stand apart in the source and are kept apart here.

Experiments:
seizure = details: intranasal
[1] = not given; remark: listed apart in the source
T-type Ca^2+ currents = details: in vitro
[2] = system: cultured mouse spinal cord neurons; details: 10-30 μg/mL
[3] = system: GABA/benzodiazepine receptor ionophore complex; details: in vitro; does not produce changes in chloride flux
partial seizures = details: controlled trials, adjunctive therapy, adults, oral
sodium channels = details: in vitro
rat hippocampal slices = details: 10-30 μg/mL
[4] = system: dopaminergic and serotonergic neurotransmission; details: in vivo microdialysis
[5] = long term therapy, per daily dose of 1 mg/kg of primidone

## Cc1ncc2n1-c1ccc(Cl)cc1C(c1ccccc1F)=NC2 [Midazolam, midazolam]
seizure
  time to terminate a seizure: 30 s

## O=C1NC(=O)C(c2ccccc2)(c2ccccc2)N1 [Phenytoin, diphenylhydantoin]
seizures
  concentration giving chronic control of seizures: above 10 μg/ml
other
  concentration at which toxic effects such as nystagmus develop: around 20 μg/ml

## CCC1(C)CC(=O)NC1=O (stereo not shown) [ethosuximide, Ethosuximide]
[1]; long-term therapy, per daily dose of 1 mg/kg
  average plasma concentration: about 2 μg/ml

## CCC1(c2ccccc2)C(=O)NC(=O)NC1=O [phenobarbital, Phenobarbital]
[1]; long term therapy in adults, per daily dose of 1 mg/kg
  average plasma concentration: about 10 μg/ml
[1]; [5]
  average plasma concentration: about 2 μg/ml

## CCC1(c2ccccc2)C(=O)NCNC1=O [primidone, Primidone]
[1]; [5]
  average plasma concentration: about 1 μg/ml

## NS(=O)(=O)Cc1noc2ccccc12 [zonisamide, 1,2-benzisoxazole-3-methanesulfonamide]
Carbonic anhydrase
  carbonic anhydrase inhibiting activity: weak carbonic anhydrase inhibiting activity
T-type Ca^2+ currents
  effect on T-type Ca2+ currents: reduces voltage-dependent, transient inward currents
[2]
  effect on synaptically-driven electrical activity: suppresses synaptically-driven electrical activity
[2]; cultured mouse spinal cord neurons
  effect on postsynaptic GABA or glutamate responses: without affecting postsynaptic GABA or glutamate responses
[3]
  binding to GABA/benzodiazepine receptor ionophore complex: binds to the GABA/benzodiazepine receptor ionophore complex in an allosteric fashion
Partial seizures
  effective doses: 100 to 600 mg/day
Sodium channels
  effect on sodium channels: blocks sodium channels
Rat hippocampal slices
  effect on neuronal or glial uptake of [3H]-GABA: without affecting
[4]
  effect on dopaminergic and serotonergic neurotransmission: facilitates both dopaminergic and serotonergic neurotransmission
